Data reported in patent publication US7001588B2, “Expanded porphyrin compositions for tumor inhibition” (Cylene Pharmaceuticals, priority 2002, dated 2006).
Entries after “also recorded” stand apart in the source; their conditions may differ. Like-named read-outs stand apart in the source and are kept apart here.

What was measured:
[1] = molecular target: c-MYC G-quadruplex (PU27 c-MYC sequence); assay: G-quadruplex polymerase stop assay, PU27 c-MYC template; type: biochemical; details: for EC50: Taq polymerase stop product, PU27 c-MYC template, 55° C., read-out: c-MYC (ED50 μM); for fold selectivity/preference for the c-MYC G-quadruplex over the human telomeric G-quadruplex: from ED50 values
[2] = tested on: human telomeric G-quadruplex; assay: G-quadruplex polymerase stop assay, human telomeric template; type: biochemical; details: for EC50: Taq polymerase stop product, four TTAGGG repeats template, 37° C., read-out: Huam Telomeric (ED50 μM)
[3] = tested on: Duplex DNA; assay: Polymerase stop assay, pausing at primer position (duplex product); type: biochemical; details: for Duplex DNA (ED30 μM): normalized percentage of duplex product; for Duplex DNA ED30, fold in parentheses (relative to c-MYC ED50): value in parentheses (×)
Protocol: These were synthesized and purified as described above. Labeled primer (100 nM) and template DNA (100 nM) were annealed in an annealing buffer (50 mM Tris-HCl, pH 7.5, 10 mM NaCl) by heating to 95° C. and then slowly cooled to room temperature. […] KCl and NaCl (10 mM each) were added to the reaction. Taq DNA polymerase was added, and the mixture was incubated at 55° C. for 20 min.
Pausing at the G-quadruplex forming site is quantified as the normalized percentage of stop product with respect to the total intensity per lane. […] This is quantified as the normalized percentage of duplex product with respect to the total intensity per lane.

[4] = tested on: c-MYC expression in HeLa S3 cells; assay: Effect on c-MYC transcription (real-time PCR, normalized to β-actin); type: cell-based, human; details: at high (100 μM) concentration, 24 h
Protocol: In this example, the various porphyrins were tested for their effect on c-MYC RNA levels normalized to the levels of β-actin RNA production.
TMPyP4, at a concentration of 100 μM, was also included for comparison.
Cell cultures were permitted to reach ˜50% confluency before test compound was added for 24 hour treatments. This was adjusted as necessary depending on treatment times. Test compounds were diluted in media in which the cells were normally cultured. Cells were washed once with PBS, and new media containing compound was added directly to the flask. Cells were harvested concurrently with untreated cells. Timepoints were collected in duplicate for each treatment.
RNA was extracted as follows: Cell pellets were lysed in Buffer RA I supplemented with 1% β-mercaptoethanol and RNA extracted according to the protocol included with the kit, and eluted in 50 μl of nuclease-free water included in the kit. RNA was quantitated by ultraviolet spectrophotometry, resuspended to a convenient concentration for downstream applications, and stored at −80° C. […]
Real-time PCR was performed using the QuantiTect SYBR Green PCR Kit (Qiagen). […]
The reactions were incubated in a DNA Engine Opticon Continuous Fluorescence Detector (MJ Research) as follows: 95° C., 14 min; (95° C., 1 min; 59° C., 1 min, 10 sec; 72° C., 1 min, 30 sec; plate read for fluorescence) 40×; 72° C., 10 min. […]

[5] = tested on: c-MYC G-quadruplex; assay: Photomediated strand cleavage reaction
[6] = tested on: HeLa S3 cells; assay: In vitro cytotoxicity assay (CellTiter 96 MTS); type: cell-based, human
Protocol: HeLa S3 (human cervical carcinoma metastasis were obtained from ATCC, and were cultured in Dulbecco's modification of Eagle's Medium (DMEM, Cellgro) with 10% FBS, 50 U/ml penicillin G sodium, 50 U/ml streptomycin sulfate. Adherent cells were grown to 80% confluency and passaged at 1:10 in the following fashion. The medium was aspirated by vacuum, and the cells were washed with 1×PBS (Cellgro). Sufficient trypsin (Gibco/BRL) was added to cover the cells, and cells were incubated at room temperature for approximately 3 min, or until cells detached from the flask with firm tapping. The trypsin was neutralized with an equal volume of culture medium, and the cells were counted using a haemocytometer and passaged at 1:10 into fresh medium. […]
In vitro cytotoxicity assays were performed using the CellTiter 96 Non-Radioactive Cell Proliferation Assay (Promega Corp., Madison, Wis.). […] Absorbance was measured using a Wallac Victor Multilabel Counter (Perkin Elmer, Shelton, Conn.) at 490 nm. Data were expressed as the percentage of survival of control calculated from the absorbance corrected for background absorbance. The surviving fraction of cells was determined by dividing the mean absorbance values of the test agents by the mean absorbance values of untreated control.

Compound: 5,10,15,20-tetra(N-methyl-3-pyridyl)-26,28-diselena sapphyrin chloride [Se2SAP]
- EC50 [1]: 0.025 µM
- fold selectivity/preference for the c-MYC G-quadruplex over the human telomeric G-quadruplex [1]: greater than 1,000 fold
- concentration giving complete arrest of the polymerase synthesis at the G-quadruplex forming site ([1]; template containing c-MYC sequence, FIG. 5A): 0.04 µM
- interaction with the human telomeric G-quadruplex structure (ED50 can't be calculated) [2]: only very little interaction
- pausing in the polymerase synthesis at the G-quadruplex forming site ([2]; at 20 μM, template containing human telomeric sequence, FIG. 5B): little pausing
- duplex (or single strand) DNA binding, in words [3]: little or no duplex binding activity; also recorded: absence of duplex binding
- inhibitory effect on c-MYC expression [4]: comparable to TMPyP4; also recorded: same as that of TMPyP4
- photoinduced cleavage of c-MYC G-quadruplex / photoactivity ([5]; compared to TMPyP4, FIG. 7): minimal cleavage; also recorded: not photoactive

Compound: C[n+]1cccc(-c2c3nc(c(-c4ccc[n+](C)c4)c4ccc([nH]4)c(-c4ccc[n+](C)c4)c4nc(c(-c5ccc[n+](C)c5)c5ccc2[nH]5)C=C4)C=C3)c1 [TMPyP3]
- EC50 [1]: 2.34 µM
- fold selectivity/preference for the c-MYC G-quadruplex over the human telomeric G-quadruplex [1]: 8 fold
- EC50 [2]: 19.5 µM
- Duplex DNA (ED30 μM) [3]: >50 (>50) μM
- Duplex DNA ED30, fold in parentheses (relative to c-MYC ED50) [3]: >50 (>50)
- EC50 [6]: 43.4 µM

Compound: C[n+]1ccc(-c2c3nc(c(-c4cc[n+](C)cc4)c4ccc([nH]4)c(-c4cc[n+](C)cc4)c4ccc([nH]4)c(-c4cc[n+](C)cc4)c4nc2C=C4)C=C3)cc1 [TMPyP4]
- EC50 [1]: 0.99 µM
- fold selectivity/preference for the c-MYC G-quadruplex over the human telomeric G-quadruplex [1]: 19 fold
- EC50 [2]: 18.9 µM
- duplex (or single strand) DNA binding, in words [3]: little or no duplex binding activity
- Duplex DNA (ED30 μM) [3]: >50 (>50) μM
- Duplex DNA ED30, fold in parentheses (relative to c-MYC ED50) [3]: >50 (>50)
- EC50 ([6]; HeLa S3, 4 days, MTS, FIG. 8, read-out: cytotoxicity ED50): 25.6 µM
- photoinduced cleavage of c-MYC G-quadruplex ([5]; at 1 μM, FIG. 6 lane 2): considerable cleavage pattern
